Where “and” joins values, the source holds several entries; their conditions need not be identical. Equal values may be shown once.

In general, EC50 refers to the midpoint of the concentration-response curve.

The target of one test is T1, PR (Homo sapiens, UniProt P06401).
T1 sequence (P06401 1-933): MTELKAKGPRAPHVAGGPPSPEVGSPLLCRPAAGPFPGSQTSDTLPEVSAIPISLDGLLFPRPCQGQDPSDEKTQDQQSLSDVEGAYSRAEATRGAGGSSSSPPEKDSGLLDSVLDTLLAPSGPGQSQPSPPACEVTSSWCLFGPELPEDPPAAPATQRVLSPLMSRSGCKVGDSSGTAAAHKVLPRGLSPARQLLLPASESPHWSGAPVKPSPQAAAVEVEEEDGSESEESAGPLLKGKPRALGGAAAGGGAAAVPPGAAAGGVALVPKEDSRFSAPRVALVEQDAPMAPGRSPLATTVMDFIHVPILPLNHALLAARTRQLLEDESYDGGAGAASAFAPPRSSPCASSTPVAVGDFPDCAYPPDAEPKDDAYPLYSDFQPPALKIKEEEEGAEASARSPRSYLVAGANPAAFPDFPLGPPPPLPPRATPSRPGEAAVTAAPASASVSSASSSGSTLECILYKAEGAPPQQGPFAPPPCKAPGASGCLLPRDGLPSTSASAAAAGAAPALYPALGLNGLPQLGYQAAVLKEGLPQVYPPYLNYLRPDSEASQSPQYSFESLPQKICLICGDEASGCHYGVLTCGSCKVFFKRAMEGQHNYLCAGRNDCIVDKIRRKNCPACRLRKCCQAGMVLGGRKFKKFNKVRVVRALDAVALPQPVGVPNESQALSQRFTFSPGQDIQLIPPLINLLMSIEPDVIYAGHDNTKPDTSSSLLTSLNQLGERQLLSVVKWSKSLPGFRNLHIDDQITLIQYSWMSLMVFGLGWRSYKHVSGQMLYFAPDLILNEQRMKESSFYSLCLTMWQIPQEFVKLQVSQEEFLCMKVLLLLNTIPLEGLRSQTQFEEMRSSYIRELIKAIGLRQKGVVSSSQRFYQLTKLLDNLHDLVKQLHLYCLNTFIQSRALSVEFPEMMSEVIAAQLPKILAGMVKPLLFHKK
Nature of the test: PR activation (max fold activation). The format is cell-based. As to conditions: Table 4.

The next test addresses T2, MR (Homo sapiens, UniProt P08235).
T2 sequence (P08235 1-984): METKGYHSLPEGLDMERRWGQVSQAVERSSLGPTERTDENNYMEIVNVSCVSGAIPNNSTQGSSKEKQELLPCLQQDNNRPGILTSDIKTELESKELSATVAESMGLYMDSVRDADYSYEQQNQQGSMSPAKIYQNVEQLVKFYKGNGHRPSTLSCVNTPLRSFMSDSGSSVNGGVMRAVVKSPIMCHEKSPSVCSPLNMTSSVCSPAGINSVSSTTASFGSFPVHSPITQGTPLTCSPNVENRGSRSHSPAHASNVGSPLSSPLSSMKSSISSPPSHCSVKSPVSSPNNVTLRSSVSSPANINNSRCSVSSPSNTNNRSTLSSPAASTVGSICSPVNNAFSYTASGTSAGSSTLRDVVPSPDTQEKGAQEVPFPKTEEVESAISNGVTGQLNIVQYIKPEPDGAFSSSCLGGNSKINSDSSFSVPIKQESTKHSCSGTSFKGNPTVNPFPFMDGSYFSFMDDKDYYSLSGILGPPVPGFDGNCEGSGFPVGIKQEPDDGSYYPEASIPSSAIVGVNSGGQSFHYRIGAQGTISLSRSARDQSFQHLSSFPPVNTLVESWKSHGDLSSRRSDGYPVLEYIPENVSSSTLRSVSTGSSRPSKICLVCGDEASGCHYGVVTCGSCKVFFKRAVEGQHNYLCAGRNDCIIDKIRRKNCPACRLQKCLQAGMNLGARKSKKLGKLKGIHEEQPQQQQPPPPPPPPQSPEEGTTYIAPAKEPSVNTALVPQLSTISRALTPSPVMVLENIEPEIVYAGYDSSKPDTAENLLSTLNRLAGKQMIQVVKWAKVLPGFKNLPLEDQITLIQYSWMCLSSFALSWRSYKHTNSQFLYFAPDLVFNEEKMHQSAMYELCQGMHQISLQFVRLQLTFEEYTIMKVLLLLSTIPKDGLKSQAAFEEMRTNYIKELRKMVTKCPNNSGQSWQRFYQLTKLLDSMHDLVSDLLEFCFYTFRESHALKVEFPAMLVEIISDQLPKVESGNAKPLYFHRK
Nature of the test: MR activation (max fold activation). The format is cell-based. The settings on record: Table 4.

The test system of a further test is Coll A. The test can be described thus: Coll A repression. The class given is cell-based. As to conditions: Table 5; for Emax: read-out: Repression Coll A % max repression; for EC50: read-out: Repression Coll A pot (EC50).
Test [1] has as its target T3, glucocorticoid receptor (GR) (Homo sapiens, UniProt P04150).
T3 construct: purchased Panvera Corp, Madison, Wis
T3 sequence (P04150 1-777): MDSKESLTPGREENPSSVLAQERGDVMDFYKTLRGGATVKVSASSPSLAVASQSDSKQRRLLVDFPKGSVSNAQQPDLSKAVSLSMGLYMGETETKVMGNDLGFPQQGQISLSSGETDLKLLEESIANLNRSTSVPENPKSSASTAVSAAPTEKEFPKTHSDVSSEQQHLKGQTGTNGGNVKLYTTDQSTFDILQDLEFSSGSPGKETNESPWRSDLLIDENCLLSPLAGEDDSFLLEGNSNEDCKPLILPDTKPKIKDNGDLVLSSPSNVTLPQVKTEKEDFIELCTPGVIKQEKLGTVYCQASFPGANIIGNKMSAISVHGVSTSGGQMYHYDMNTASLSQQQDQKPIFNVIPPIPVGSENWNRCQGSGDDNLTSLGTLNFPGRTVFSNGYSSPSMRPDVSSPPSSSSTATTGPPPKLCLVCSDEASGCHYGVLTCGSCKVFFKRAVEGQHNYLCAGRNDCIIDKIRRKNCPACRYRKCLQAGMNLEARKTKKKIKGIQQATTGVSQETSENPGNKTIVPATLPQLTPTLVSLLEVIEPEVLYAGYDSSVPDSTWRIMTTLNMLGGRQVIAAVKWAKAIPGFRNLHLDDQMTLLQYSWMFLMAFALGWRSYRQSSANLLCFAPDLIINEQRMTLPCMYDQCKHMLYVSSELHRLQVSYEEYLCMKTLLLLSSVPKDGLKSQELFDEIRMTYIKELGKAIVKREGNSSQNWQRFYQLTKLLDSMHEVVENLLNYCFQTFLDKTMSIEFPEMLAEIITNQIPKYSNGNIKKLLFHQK
Nature of the test: Glucocorticoid Receptor Competitor Assay Kit (Panvera) ligand binding. The settings on record: relative binding affinity, dexamethasone = 100; for GR binding RBA (dex = 100): Table 3. The text has this:
The Glucocorticoid Receptor Competitor Assay Kit (Panvera Corp, Madison, Wis.) was used for ligand binding studies. The recommended room temperature protocol was followed for all assayed ligands.

Take `CC12Cc3cnn(-c4ccc(F)cc4)c3C=C1CCCC2C(O)c1ccsc1` (centres unmarked) [Compound 238, [1-(4-Fluoro-phenyl)-4a-methyl-4,4a-5,6,7,8-hexahydro-1H-benzo[f]indazol-5-yl]-thiophen-3-yl-methanol]: at PR, the “PR max fold activation” value is 155 ± 32 and 109 ± 10. At MR, the “MR max fold activation” value was 6.2 ± 0.9. In the test with Coll A, the Emax was 68% and the EC50 is 27 nM.

With `Cc1cc(O)cc(C)c1C(O)C1CCCC2=Cc3c(cnn3-c3ccc(F)cc3)CC21C` (centres unmarked) [Compound 227, 4-{[1-(4-Fluoro-phenyl)-4a-methyl-4,4a,5,6,7,8-hexahydro-1H-benzo[f]indazol-5-yl]-hydroxy-methyl}-3,5-dimethyl-phenol], the “GR Binding RBA (dexamethasone = 100)” value in test [1] (Table 1) was 50. For the same compound, the “GR binding RBA (dex = 100)” value in test [1] is recorded as 103. Besides, at PR, the “PR max fold activation” value was 144 ± 32. Besides, the “MR max fold activation” value on MR was 3.2 ± 0.9. In the test on Coll A, the Emax turned out to be 75% and the EC50 is 6.9 nM.

As for `CC12Cc3cnn(-c4ccc(F)cc4)c3C=C1CCCC2C(O)c1cccc2[nH]ccc12` (centres unmarked) [Compound 237, [1-(4-Fluoro-phenyl)-4a-methyl-4,4a,5,6,7,8-hexahydro-1H-benzo[f]indazol-5-yl]-(1H-indol-4-yl)-methanol], in test [1], the “GR binding RBA (dex = 100)” value was 110. For the same compound, the “MR max fold activation” value on MR came out at 5.0 ± 1.5. For the same compound, in the test with Coll A, the Emax turned out to be 75% and the EC50 was 8.1 nM.

(Values after patent US7947726B2, “Non-steroidal ligands for the glucocorticoid receptor, and compositions thereof” (The Regents of the University of California, priority 2002, dated 2011).)
